Laboratory results from the supplement of paper PMC9780213.

Key:
Conditions in all cases: treatment time: 24 h
U2OS = experiment: cell count relative to DMSO control (panel A, nuclei/RNA/PMG/mitochondria stain) (fraction of control); higher = more cells (less toxicity)
Description: (§1)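 U2OS-derived cells in 384-well plates were treated for 24 h with a 7-point 2-fold dilution series (top dose 20 µM for most compounds; final max DMSO 1%), then fixed, stained in four marker panels and imaged on a Cellomics ArrayScan. Cell count per treatment (three replicate plates merged) is given as a fraction of DMSO control. Panel A used parental U2OS, panel B U2OS-mOrange2-Peroxisome, panel C1 U2OS-LMNB1-TUBA1B-ACTB (DRAQ5 nuclei).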

U2OS-LMNB1-TUBA1B-ACTB = experiment: cell count relative to DMSO control (panel C1, DRAQ5/ER stain) (fraction of control); higher = more cells (less toxicity)
Description: as §1

U2OS-mOrange2-Peroxisome = experiment: cell count relative to DMSO control (panel B, lysosome/peroxisome/lipid stain) (fraction of control); higher = more cells (less toxicity)
Description: as §1

Cc1c(N)nc([C@H](CC(N)=O)NC[C@H](N)C(N)=O)nc1C(=O)N[C@H](C(=O)N[C@H](C)[C@@H](O)[C@H](C)C(=O)N[C@H](C(=O)NCCc1nc(-c2nc(C(=O)NCCC[S+](C)C)cs2)cs1)[C@@H](C)O)[C@@H](O[C@@H]1O[C@@H](CO)[C@@H](O)[C@H](O)[C@@H]1O[C@H]1O[C@H](CO)[C@@H](O)[C@H](OC(N)=O)[C@@H]1O)c1c[nH]cn1 [bleomycin]
cell count
Conditions | 0.3125 µM | 0.625 µM | 1.25 µM | 2.5 µM | 5 µM | 10 µM | 20 µM
U2OS | 0.746 | 0.849 | 0.8 | 0.933 | 0.701 | 0.817 | 0.794
U2OS-LMNB1-TUBA1B-ACTB | 0.845 | 0.893 | 0.934 | 1.02 | 0.88 | 0.909 | 0.887
U2OS-mOrange2-Peroxisome | 1.36 | 1.16 | 1.31 | 1.26 | 1.32 | 1.25 | 1.34

C[C@H]1CCC/C=C/[C@@H]2C[C@H](O)C[C@H]2[C@H](O)/C=C/C(=O)O1 [brefeldin-a]
cell count
Conditions | 0.3125 µM | 0.625 µM | 1.25 µM | 2.5 µM | 5 µM | 10 µM | 20 µM
U2OS | 0.543 | 0.545 | 0.527 | 0.584 | 0.586 | 0.644 | 0.577
U2OS-LMNB1-TUBA1B-ACTB | 0.698 | 0.697 | 0.661 | 0.616 | 0.632 | 0.584 | 0.529
U2OS-mOrange2-Peroxisome | 0.53 | 0.567 | 0.55 | 0.574 | 0.515 | 0.544 | 0.557

CN(C)[C@@H]1C(O)=C(C(N)=O)C(=O)[C@@]2(O)C(O)=C3C(=O)c4c(O)ccc(Cl)c4[C@@](C)(O)[C@H]3C[C@@H]12 [chlortetracycline]
cell count
Conditions | 0.3125 µM | 0.625 µM | 1.25 µM | 2.5 µM | 5 µM | 10 µM | 20 µM
U2OS | 1.12 | 1.07 | 1.08 | 1.06 | 1.02 | 0.933 | 0.783
U2OS-LMNB1-TUBA1B-ACTB | 1.15 | 1.12 | 1.1 | 0.983 | 0.989 | 1.07 | 0.897
U2OS-mOrange2-Peroxisome | 0.886 | 0.771 | 0.779 | 0.944 | 1.01 | 0.62 | 0.486

N.N.[Cl][Pt][Cl] [cisplatin]
cell count
Conditions | 0.15625 µM | 0.3125 µM | 0.625 µM | 1.25 µM | 2.5 µM | 5 µM | 10 µM
U2OS | 1.07 | 1.04 | 1.12 | 1.03 | 1.02 | 1.02 | 0.948
U2OS-LMNB1-TUBA1B-ACTB | 1.01 | 1.06 | 1.12 | 1.03 | 0.956 | 0.991 | 1.01
U2OS-mOrange2-Peroxisome | 1.19 | 0.977 | 0.858 | 0.908 | 0.967 | 1.05 | 0.956

C=C1[C@@H](C)[C@H]2[C@H](Cc3ccccc3)NC(=O)[C@]23[C@H](OC(C)=O)/C=C/[C@@](C)(O)C(=O)[C@@H](C)C/C=C/[C@H]3[C@@H]1O [cytochalasin-d]
cell count
Conditions | 0.000781 µM | 0.0015625 µM | 0.003125 µM | 0.00625 µM | 0.0125 µM | 0.025 µM | 0.05 µM
U2OS | 0.938 | 0.944 | 0.899 | 1 | 0.643 | 0.463 | 0.403
U2OS-LMNB1-TUBA1B-ACTB | 1.08 | 1.04 | 1.04 | 0.821 | 0.499 | 0.374 | 0.356
U2OS-mOrange2-Peroxisome | 0.993 | 1.12 | 1.29 | 1.24 | 0.826 | 0.656 | 0.602

Cc1c2oc3c(C)ccc(C(=O)N[C@@H]4C(=O)N[C@H](C(C)C)C(=O)N5CCC[C@H]5C(=O)N(C)CC(=O)N(C)[C@@H](C(C)C)C(=O)O[C@@H]4C)c3nc-2c(C(=O)N[C@@H]2C(=O)N[C@H](C(C)C)C(=O)N3CCC[C@H]3C(=O)N(C)CC(=O)N(C)[C@@H](C(C)C)C(=O)O[C@@H]2C)c(N)c1=O [dactinomycin]
cell count
Conditions | 0.3125 µM | 0.625 µM | 1.25 µM | 2.5 µM | 5 µM | 10 µM | 20 µM
U2OS | 0.928 | 0.89 | 0.807 | 0.741 | 0.73 | 0.381 | 0.229
U2OS-LMNB1-TUBA1B-ACTB | 1.05 | 1.09 | 1 | 0.993 | 0.824 | 0.661 | 0.418
U2OS-mOrange2-Peroxisome | 1.08 | 1.07 | 1.01 | 0.743 | 0.663 | 0.243 | 0.139

COc1cccc2c1C(=O)c1c(O)c3c(c(O)c1C2=O)C[C@@](O)(C(C)=O)C[C@@H]3O[C@H]1C[C@H](N)[C@H](O)[C@H](C)O1 [daunorubicin]
cell count
Conditions | 0.07812 µM | 0.15625 µM | 0.3125 µM | 0.625 µM | 1.25 µM | 2.5 µM | 5 µM
U2OS | 0.92 | 0.928 | 0.96 | 0.829 | 0.457 | 0.376 | 0.183
U2OS-LMNB1-TUBA1B-ACTB | 0.953 | 0.99 | 1.02 | 0.912 | 0.645 | 0.613 | 0.472
U2OS-mOrange2-Peroxisome | 0.537 | 0.529 | 0.527 | 0.605 | 0.618 | 0.398 | 0.152

CO[C@H]1C[C@@H]2CC[C@@H](C)[C@@](O)(O2)C(=O)C(=O)N2CCCC[C@H]2C(=O)O[C@H]([C@H](C)C[C@@H]2CC[C@@H](OP(C)(C)=O)[C@H](OC)C2)CC(=O)[C@H](C)/C=C(\C)[C@@H](O)[C@@H](OC)C(=O)[C@H](C)C[C@H](C)/C=C/C=C/C=C/1C [deforolimus]
cell count
Conditions | 0.07812 µM | 0.15625 µM | 0.3125 µM | 0.625 µM | 1.25 µM | 2.5 µM | 5 µM
U2OS | 0.964 | 0.74 | 0.655 | 0.557 | 0.504 | 0.582 | 0.382
U2OS-LMNB1-TUBA1B-ACTB | 0.878 | 0.753 | 0.625 | 0.644 | 0.471 | 0.438 | 0.373
U2OS-mOrange2-Peroxisome | 0.782 | 0.674 | 0.595 | 0.61 | 0.485 | 0.385 | 0.364

CNCCCN1c2ccccc2CCc2ccccc21 [desipramine]
cell count
Conditions | 0.3125 µM | 0.625 µM | 1.25 µM | 2.5 µM | 5 µM | 10 µM | 20 µM
U2OS | 0.822 | 0.55 | 0.489 | 0.481 | 0.379 | 0.243 | 0.189
U2OS-LMNB1-TUBA1B-ACTB | 0.972 | 0.817 | 0.772 | 0.652 | 0.595 | 0.32 | 0.333
U2OS-mOrange2-Peroxisome | 0.62 | 0.64 | 0.617 | 0.571 | 0.15 | 0.115 | 0.0511

C[C@H]1O[C@@H](O[C@H]2[C@@H](O)C[C@H](O[C@H]3[C@@H](O)C[C@H](O[C@H]4CC[C@@]5(C)[C@H](CC[C@@H]6[C@@H]5CC[C@]5(C)[C@@H](C7=CC(=O)OC7)CC[C@]65O)C4)O[C@@H]3C)O[C@@H]2C)C[C@H](O)[C@@H]1O [digitoxin]
cell count
Conditions | 0.07812 µM | 0.15625 µM | 0.3125 µM | 0.625 µM | 1.25 µM | 2.5 µM | 5 µM
U2OS | 1.07 | 1.02 | 1.04 | 1.11 | 1.13 | 1.09 | 1.11
U2OS-LMNB1-TUBA1B-ACTB | 0.905 | 1.04 | 1.03 | 1.05 | 1.02 | 1.11 | 1.12
U2OS-mOrange2-Peroxisome | 1.24 | 1.23 | 0.888 | 1.04 | 1.01 | 1.09 | 1.02

COc1cccc2c1C(=O)c1c(O)c3c(c(O)c1C2=O)C[C@@](O)(C(=O)CO)C[C@@H]3O[C@H]1C[C@H](N)[C@H](O)[C@H](C)O1 [doxorubicin]
cell count
Conditions | 0.07812 µM | 0.15625 µM | 0.3125 µM | 0.625 µM | 1.25 µM | 2.5 µM | 5 µM
U2OS | 0.933 | 1.03 | 0.932 | 0.836 | 0.84 | 0.754 | 0.34
U2OS-LMNB1-TUBA1B-ACTB | 1.08 | 1.17 | 1.12 | 1.23 | 0.925 | 0.807 | 0.624
U2OS-mOrange2-Peroxisome | 0.712 | 0.735 | 0.747 | 0.899 | 0.86 | 1.1 | 0.37

O=C(N/N=C/c1ccc(O)c(O)c1)c1cc2ccccc2cc1O [dynasore]
cell count
Conditions | 0.3125 µM | 0.625 µM | 1.25 µM | 2.5 µM | 5 µM | 10 µM | 20 µM
U2OS | 0.981 | 1.01 | 0.925 | 1.02 | 0.867 | 0.807 | 0.638
U2OS-LMNB1-TUBA1B-ACTB | 1.02 | 1.05 | 1.06 | 1.12 | 0.953 | 0.966 | 0.826
U2OS-mOrange2-Peroxisome | 0.779 | 0.85 | 0.742 | 1.03 | 0.645 | 0.497 | 0.501

CCCCCCCC(=O)N[C@H](CN1CCCC1)[C@H](O)c1ccc2c(c1)OCCO2 [eliglustat]
cell count
Conditions | 0.3125 µM | 0.625 µM | 1.25 µM | 2.5 µM | 5 µM | 10 µM | 20 µM
U2OS | 0.927 | 0.977 | 0.988 | 1.01 | 1.1 | 1.01 | 0.973
U2OS-LMNB1-TUBA1B-ACTB | 1.08 | 1.13 | 1.13 | 1.08 | 1.09 | 1.07 | 1.02
U2OS-mOrange2-Peroxisome | 1.25 | 0.795 | 0.804 | 0.767 | 0.889 | 0.945 | 1.12

CC[C@H]1CN2CCc3cc(OC)c(OC)cc3[C@@H]2C[C@@H]1C[C@H]1NCCc2cc(OC)c(OC)cc21 [emetine]
cell count
Conditions | 0.3125 µM | 0.625 µM | 1.25 µM | 2.5 µM | 5 µM | 10 µM | 20 µM
U2OS | 1.08 | 1.01 | 1.01 | 0.994 | 1.02 | 1.05 | 0.753
U2OS-LMNB1-TUBA1B-ACTB | 1.11 | 1.08 | 1 | 1.06 | 1.02 | 0.916 | 0.899
U2OS-mOrange2-Peroxisome | 1.04 | 1.29 | 1.13 | 1.04 | 1.06 | 1.15 | 1.08

CCOc1ccccc1-n1c(C(C)N2CCN(C(=O)COc3ccc(Cl)cc3)CC2)nc2ccccc2c1=O (stereo not given) [erastin]
cell count
Conditions | 0.3125 µM | 0.625 µM | 1.25 µM | 2.5 µM | 5 µM | 10 µM | 20 µM
U2OS | 1.04 | 1.07 | 1.03 | 1.02 | 1.09 | 0.978 | 0.982
U2OS-LMNB1-TUBA1B-ACTB | 1.11 | 1.14 | 1.06 | 1 | 1.11 | 1.03 | 0.905
U2OS-mOrange2-Peroxisome | 0.603 | 0.516 | 0.65 | 0.612 | 0.749 | 0.77 | 0.579
